Where two headings read alike, the source gives them in different places. Marks after values point to notes of the source that are not given here.
Columns and labels:
Hsp32 = assay: Western blot of Hsp32 in HT-22 cells; assay type: cell-based, mouse; conditions: 24 h after addition; GK-1, GK-2 10^−8 and 10^−5 M; GK-3 10^−6 M; GK-4 10^−7 M; GK-5 10^−6 M
Experimental: The amount of Hsp70, Hsp32 and pTrkA was determined in the cytoplasmic fraction of HT-22 neuronal cells. For heat shock proteins, a test compound was added to the culture 24 hours prior to testing, before the cells were washed off the culture liquid with PBS. For pTrkA, a test compound was added to the culture immediately prior to the cell lysis just for 1 or 2 min, before the cells were washed off the culture liquid with PBS. Then the cells were mixed with the lysis buffer (50 mM Tris-HCl, 5 mM EDTA, 1 mM DTT, 1% Triton X-100, pH 7.5) at 4° C. and lysed for 5 min, then scraped off, transferred into a 1.5 ml centrifuge tube and centrifuged at 13000 rpm and 4° C. for 10 min. The supernatant containing cytosolic proteins was assayed by electrophoresis and immunoblotting. Proteins were separated on a 10% polyacrylamide gel (PAAG) and transferred from PAAG onto a PVDF membrane by electroelution for 45 min. Western blots were pre-incubated for 1 h in a TBST solution containing 1% Tween-20 and supplemented with 5% (w/v) skim milk. Western blots were then incubated with the primary polyclonal anti-Hsp32 antibody diluted 1:1000 or primary monoclonal anti-Hsp70 antibody diluted 1:1000 or primary monoclonal anti-phosphorylated tyrosine kinase A antibody diluted 1:1000 for 1 hour. Then the blots were washed and incubated with a secondary antibody conjugated to horseradish peroxidase (diluted 1:2000) for 1 hour. The detection of Hsp70, Hsp32 and pTrkA was carried out by the ECL reaction on a Kodak film.

[1] = tested on: rats with hemorrhagic stroke; conditions: 1 mg/kg
Experimental: The experiments were carried out on male white outbred rats weighing 220-250 g. […] The local cerebral hemorrhage (post-traumatic intracerebral hemorrhage) as a hemorrhagic stroke (HS) model was produced by the method of Makarenko (Makarenko A. N. et al., Zh. V. N. D. 2002, 52(6), 765-768).
To produce the stroke, rats were anesthetized with chloral hydrate (400 mg/kg i.m.) followed by craniotomy. The cerebral tissue in the region of internal capsule was destroyed followed (in 2-3 min) by the injection of blood (0.02-0.03 ml) taken from under the animal's tongue.
The rats were monitored for 14 days after surgery. Animal's physical condition and behavioral features were recorded at 1, 3, 7 and 14 days.
The animals were distributed into 3 groups. Group 1 comprised sham-operated (SO) rats with craniotomy alone, group 2 comprised animals with HS, and group 3 comprised rats with HS treated with GK-2 (1 mg/kg at 3 h after surgery and every 48 hours thereafter for a total of 6 administrations). Group 1 and group 2 animals were treated with physiological saline in an equivalent volume.
Changes in animals' physical condition and behavior were evaluated by conventional methods. The neurological status was assessed by scoring neurological deficits according to MacGrow's stroke scoring system as modified by I. V. Gannushkina; by the muscle tone and coordination of movements monitoring methods; cognitive function was assessed by the passive avoidance conditioned reflex (PAR); and orientation and exploratory behavior by using the open field test. Also the drug's effect on the survival of rats was monitored.

[2] = tested on: rat cerebral cortex cells; conditions: 1 mg/kg i.p., 4 injections; cells isolated day 16; FIG. 2.9
Experimental: (§1) The experiments were conducted on male outbred rats weighing 350-420 g. The test compound was administered intraperitoneally at a dose of 1 mg/kg. On day 1 the animals were given the first injection of the test compound. 24 hours later (day 2) they underwent surgery for a bilateral ligation of the carotid artery. Following another 24 h (day 3) the animals were given the second injection of the test compound. 96 hours later (day 7) they were given the third injection of the test compound. Following another 24 h (day 8) the animals were tested in an open field test (Jackson H. F., Broadhurst P. L. The effects of parachlorophenylalanine and stimulus intensity on open-field test measures in rats. Neuropharmacology, 1982, 21, 1279-1282). On the next day (day 9) they were allowed to explore new objects (a modification of the test described in Ennaceur A., Delacour J. A new one-trial test for neurobiological studies of memory in rats. 1: Behavioral data. Behavioral Brain Research, 1988, 31, 47-59). On day 11 the animals were given the fourth injection of the test compound. The animals were sacrificed by decapitation 120 hours after the last injection of the test compound (day 16).
(§2) The rats were distributed into 3 groups (n≧8 for each group) at random. Group 1 (sham-operated) comprised animals that were anesthetized followed by a sham operation and subsequently received 4 injections of physiological saline according to the experimental set-up; Group 2 (ligation) comprised animals that were anesthetized followed by surgery for a bilateral ligation of the carotid artery and subsequently received 4 injections of saline according to the experimental set-up; Group 3 (ligation+test compound) comprised animals that were anesthetized followed by surgery for a bilateral ligation of the carotid artery and subsequently received 4 injections of the test compound according to the experimental set-up.

[3] = tested on: rats with bilateral ligation of the carotid artery; conditions: 1 mg/kg i.p.
Experimental: as §1, §2

## NCCCC[C@H](NC(=O)[C@H](CCC(=O)O)NC(=O)CCC(=O)O)C(=O)NCCCCCCNC(=O)[C@H](CCCCN)NC(=O)[C@H](CCC(=O)O)NC(=O)CCC(=O)O [GK-2, bis-(N-monosuccinyl-glutamyl-lysine) hexamethylenediamide]
Hsp32
  amount of Hsp32: increase
[1]; sham 0, stroke 40
  Number of rats lost within 14 days after HS, total loss, %: 0%
[1]; sham 0/10, stroke 4/10
  Number of rats lost within 14 days after HS, total loss, abs.: 0/10^#
[1]; sham 13.3 ± 2.10, stroke 40.2 ± 13.2
  Latency to entering the dark compartment (burrowing reflex): 27.9 ± 10.4 s
[1]; Day 1, sham 0, stroke 20
  Number of rats lost, %: 0%
[1]; Day 1, sham 0/10, stroke 2/10
  Number of rats lost, abs.: 0/10
[1]; Day 1, sham 0.9, stroke 0
  Number of crossings into open arms: 1.6 ± 0.4
[1]; Day 1, sham 1.9, stroke 0.25
  Number of crossings into the middle: 1.5 ± 0.4
[1]; Day 1, sham 2.4, stroke 1.1
  Number of crossings into closed arms: 1.9 ± 0.4
[1]; Day 1, sham 6.1, stroke 62.8
  Latency to entering an arm: 4.9 ± 1.05 s
[1]; Day 1, sham 11.6, stroke 0
  Length of time spent in open arms: 51.3 ± 27.9 s
[1]; Day 1, sham 46.8, stroke 95.3
  Length of time spent in the middle: 27.5 ± 7.4 s
[1]; Day 1, sham 60, stroke 100
  PAR retention: Number of rats entering the dark compartment: 60%
[1]; Day 1, sham 95.0, stroke 24.5
  PAR retention: Latency to entering the dark compartment: 85.5 ± 25.9 s
[1]; Day 1, sham 241.6, stroke 204.8
  Length of time spent in closed arms: 221.2 ± 28.5 s
[1]; Day 3, sham 0, stroke 0
  Number of rats lost, %: 0%
[1]; Day 3, sham 0/10, stroke 0/8
  Number of rats lost, abs.: 0/10
[1]; Day 3, sham 0.6, stroke 0.12
  Number of crossings into open arms: 0.8 ± 0.2
  Number of crossings into the middle: 0.5 ± 0.2
[1]; Day 3, sham 1.4, stroke 0.5
  Number of crossings into closed arms: 1.2 ± 0.1
[1]; Day 3, sham 5.1, stroke 164.4
  Latency to entering an arm: 7.1 ± 1.9 s
[1]; Day 3, sham 6.2, stroke 1.3
  Length of time spent in open arms: 10.3 ± 4.4 s
[1]; Day 3, sham 18.6, stroke 165.0
  Length of time spent in the middle: 15.1 ± 4.9 s
[1]; Day 3, sham 70, stroke 100
  PAR retention: Number of rats entering the dark compartment: 60%
[1]; Day 3, sham 74.0, stroke 18.3
  PAR retention: Latency to entering the dark compartment: 88.0 ± 25.8 s
[1]; Day 3, sham 275.2, stroke 133.7
  Length of time spent in closed arms: 274.6 ± 5.7 s
[1]; Day 7, sham 0, stroke 12.5
  Number of rats lost, %: 0%
[1]; Day 7, sham 0/10, stroke 1/8
  Number of rats lost, abs.: 0/10
[1]; Day 7, sham 0.7, stroke 0
  Number of crossings into the middle: 0.8 ± 0.4
[1]; Day 7, sham 1.4, stroke 0.4
  Number of crossings into open arms: 1.1 ± 0.2
[1]; Day 7, sham 1.4, stroke 1.0
  Number of crossings into closed arms: 1.5 ± 0.2
[1]; Day 7, sham 3.0, stroke 67.4
  Latency to entering an arm: 2.5 ± 0.3 s
[1]; Day 7, sham 8.3, stroke 67.4
  Length of time spent in the middle: 8.0 ± 2.2 s
[1]; Day 7, sham 13.3, stroke 8.6
  Length of time spent in open arms: 9.2 ± 1.9 s
[1]; Day 7, sham 50, stroke 100
  PAR retention: Number of rats entering the dark compartment: 80%
[1]; Day 7, sham 97.2, stroke 17.6
  PAR retention: Latency to entering the dark compartment: 45.5 ± 22.5 s
[1]; Day 7, sham 278.4, stroke 238.3
  Length of time spent in closed arms: 283.0 ± 2.9 s
[1]; Day 14, sham 0, stroke 14.3
  Number of rats lost, %: 0%
[1]; Day 14, sham 0/10, stroke 1/7
  Number of rats lost, abs.: 0/10
[1]; Day 14, sham 0.7, stroke 0.2
  Number of crossings into the middle: 1.4 ± 0.3
[1]; Day 14, sham 1.1, stroke 0.2
  Number of crossings into open arms: 1.1 ± 0.3
[1]; Day 14, sham 1.3, stroke 0.8
  Number of crossings into closed arms: 1.6 ± 0.4
[1]; Day 14, sham 3.1, stroke 54.3
  Latency to entering an arm: 2.6 ± 0.4 s
[1]; Day 14, sham 18.1, stroke 57.7
  Length of time spent in the middle: 16.4 ± 8.5 s
[1]; Day 14, sham 29.7, stroke 0.8
  Length of time spent in open arms: 8.8 ± 2.3 s
[1]; Day 14, sham 60, stroke 100
  PAR retention: Number of rats entering the dark compartment: 90%
[1]; Day 14, sham 93.5, stroke 8.0
  PAR retention: Latency to entering the dark compartment: 45.0 ± 16.4 s
[1]; Day 14, sham 252.2, stroke 241.5
  Length of time spent in closed arms: 274.8 ± 9.9 s
[2]
  viability of the cortical cells (MTT): enhanced
[3]; day 8, ligation reduced it, FIG. 2.5
  horizontal motor activity in the open field test: restored it to the level found in the sham-operated rats
[3]; day 8, ligation reduced it, FIG. 2.6
  vertical motor activity in the open field test: restored it to the level found in the sham-operated rats
[3]; day 9, FIGS. 2.7, 2.8
  total object smelling time and first-minute object exploration: not different from the sham-operated rats

Reference: patent US9683014B2, “Dipeptide mimetics of NGF and BDNF neurotrophins” (UCHREZHDENIE ROSSIISKOI AKADEMII MEDITSYNSKIKH NAUK …, priority 2009, dated 2017)
